Drawing on patent publication US20200055839A1 (priority 2017, published 2020), this text covers EC50 for 27 compounds.

pEC50: −log10 of the molar value.

Broadly, the pEC50 is the negative decadic logarithm of the EC50, by convention in mol/L. A lower pEC50 goes with a large EC50.

The test system of this assay is NL-RLuc virus. Put plainly: Inhibition of HIV replication (NL-RLuc virus, luciferase readout in MT-2 cells). Format: cell-based. Particulars: Human immunodeficiency virus 1, MT2, 120 h, MT-2 cells infected with NL-RLuc virus, 5 days of incubation, 10% FBS, at least 2 experiments. Summed up: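 EC50 derived via median effect equation from at least 2 experiments, using luciferase expression as virus-growth readout. Replication-competent NL-RLuc reporter virus (nef partly replaced by Renilla luciferase) infected MT-2 cells with serial compound dilutions; 5-day incubation in RPMI 1640 plus 10% FBS.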
The compound `Cc1ncc(-c2ccc(OCCCC(C)C)cn2)c(N2CCC(C)(C)CC2)c1[C@H](OC(C)(C)C)C(=O)O` [Example 345, (2S)-2-(tert-butoxy)-2-[4′-(4,4-dimethylpiperidin-1-yl)-6′-methyl-5-[(4-methylpentyl)oxy]-[2,3′-bipyridine]-5′-yl]acetic acid] gave a pEC50 of 8.70.

Turning to `Cc1ccccc1COc1ccc(-c2cnc(C)c([C@H](OC(C)(C)C)C(=O)O)c2N2CCC(C)(C)CC2)nc1` [Example 346, (2S)-2-(tert-butoxy)-2-[4′-(4,4-dimethylpiperidin-1-yl)-6′-methyl-5-[(2-methylphenyl)methoxy]-[2,3′-bipyridine]-5′-yl]acetic acid], the negative logarithm of the EC50 (pEC50) is 8.30.

Compound `Cc1cccc(COc2ccc(-c3cnc(C)c([C@H](OC(C)(C)C)C(=O)O)c3N3CCC(C)(C)CC3)nc2)c1` [Example 347, (2S)-2-(tert-butoxy)-2-[4′-(4,4-dimethylpiperidin-1-yl)-6′-methyl-5-[(3-methylphenyl)methoxy]-[2,3′-bipyridine]-5′-yl]acetic acid] had a pEC50 of 9.00.

On to `Cc1ncc(-c2ccc(OCc3ccccc3F)cn2)c(N2CCC(C)(C)CC2)c1[C@H](OC(C)(C)C)C(=O)O` [Example 348, (2S)-2-(tert-butoxy)-2-[4′-(4,4-dimethylpiperidin-1-yl)-5-[(2-fluorophenyl)methoxy]-6′-methyl-[2,3′-bipyridine]-5′-yl]acetic acid], for which the pEC50 was 9.22.

Consider `Cc1ncc(-c2ccc(O[C@@H](C)c3ccccc3)cn2)c(N2CCC(C)(C)CC2)c1[C@H](OC(C)(C)C)C(=O)O` [Example 349, (2S)-2-(tert-butoxy)-2-[4′-(4,4-dimethylpiperidin-1-yl)-6′-methyl-5-[(1S)-1-phenylethoxy]-[2,3′-bipyridine]-5′-yl]acetic acid], for which the pEC50 is 9.00.

Compound `Cc1ncc(-c2ccc(O[C@H](C)c3ccccc3)cn2)c(N2CCC(C)(C)CC2)c1[C@H](OC(C)(C)C)C(=O)O` [Example 350, (2S)-2-(tert-butoxy)-2-[4′-(4,4-dimethylpiperidin-1-yl)-6′-methyl-5-[(1R)-1-phenylethoxy]-[2,3′-bipyridine]-5′-yl]acetic acid] gave a pEC50 of 8.52.

`Cc1ncc(-c2ccc(OCCCC(C)(C)C)cn2)c(N2CCC(C)(C)CC2)c1[C@H](OC(C)(C)C)C(=O)O` [Example 351, (2S)-2-(tert-butoxy)-2-{5-[(4,4-dimethylpentyl)oxy]-4′-(4,4-dimethylpiperidin-1-yl)-6′-methyl-[2,3′-bipyridine]-5′-yl}acetic acid] gave a negative-log EC50 (pEC50) of 9.10.

On to `Cc1ncc(-c2ccc(OCCc3cc(F)c(F)cc3F)cn2)c(N2CCC(C)(C)CC2)c1[C@H](OC(C)(C)C)C(=O)O` [Example 353, (2S)-2-(tert-butoxy)-2-[4′-(4,4-dimethylpiperidin-1-yl)-6′-methyl-5-[2-(2,4,5-trifluorophenyl)ethoxy]-[2,3′-bipyridine]-5′-yl]acetic acid], for which the pEC50 was 9.10.

For the compound `Cc1ncc(-c2ccc(OCCc3cccc(Cl)c3F)cn2)c(N2CCC(C)(C)CC2)c1[C@H](OC(C)(C)C)C(=O)O` [Example 354, (2S)-2-(tert-butoxy)-2-{5-[2-(3-chloro-2-fluorophenyl)ethoxy]-4′-(4,4-dimethylpiperidin-1-yl)-6′-methyl-[2,3′-bipyridine]-5′-yl}acetic acid], the pEC50 is 9.30.

Compound `Cc1ncc(-c2ccc(OCc3c(Cl)cccc3Cl)cn2)c(N2CCC(C)(C)CC2)c1[C@H](OC(C)(C)C)C(=O)O` [Example 355, (2S)-2-(tert-butoxy)-2-{5-[(2,6-dichlorophenyl)methoxy]-4′-(4,4-dimethylpiperidin-1-yl)-6′-methyl-[2,3′-bipyridine]-5′-yl}acetic acid] had a pEC50 of 9.00.

Consider `COc1ccccc1COc1ccc(-c2cnc(C)c([C@H](OC(C)(C)C)C(=O)O)c2N2CCC(C)(C)CC2)nc1` [Example 357, (2S)-2-(tert-butoxy)-2-[4′-(4,4-dimethylpiperidin-1-yl)-5-[(2-methoxyphenyl)methoxy]-6′-methyl-[2,3′-bipyridine]-5′-yl]acetic acid], for which the pEC50 is 9.10.

For `COc1ccc(COc2ccc(-c3cnc(C)c([C@H](OC(C)(C)C)C(=O)O)c3N3CCC(C)(C)CC3)nc2)c(OC)c1` [Example 358, (2S)-2-(tert-butoxy)-2-{5-[(2,4-dimethoxyphenyl)methoxy]-4′-(4,4-dimethylpiperidin-1-yl)-6′-methyl-[2,3′-bipyridine]-5′-yl}acetic acid], the negative logarithm of the EC50 (pEC50) was 8.92. This pEC50 and that of the compound before are within 0.2 log units of each other.

The compound `CCC(CC)COc1ccc(-c2cnc(C)c([C@H](OC(C)(C)C)C(=O)O)c2N2CCC(C)(C)CC2)nc1` [Example 359, (2S)-2-(tert-butoxy)-2-[4′-(4,4-dimethylpiperidin-1-yl)-5-(2-ethylbutoxy)-6′-methyl-[2,3′-bipyridine]-5′-yl]acetic acid] had a pEC50 of 8.70.

With `CCC(C)COc1ccc(-c2cnc(C)c([C@H](OC(C)(C)C)C(=O)O)c2N2CCC(C)(C)CC2)nc1` (stereo partly drawn) [Example 360, (2S)-2-(tert-butoxy)-2-[4′-(4,4-dimethylpiperidin-1-yl)-6′-methyl-5-(2-methylbutoxy)-[2,3′-bipyridine]-5′-yl]acetic acid], the pEC50 is 9.10.

In turn, `Cc1ncc(-c2ccc(OCCC(C)C)cc2)c(N2CCC(C)(C)CC2)c1[C@H](OC(C)(C)C)C(=O)O` [Example 361, (2S)-2-(tert-butoxy)-2-[4-(4,4-dimethylpiperidin-1-yl)-2-methyl-5-[4-(3-methylbutoxy)phenyl]pyridin-3-yl]acetic acid] gave a pEC50 of 8.40.

`Cc1ncc(-c2ccc(O[C@H](C)C(C)C)cc2)c(N2CCC(C)(C)CC2)c1[C@H](OC(C)(C)C)C(=O)O` [Example 362, (2S)-2-(tert-butoxy)-2-[4-(4,4-dimethylpiperidin-1-yl)-2-methyl-5-(4-{[(2R)-3-methylbutan-2-yl]oxy}phenyl)pyridin-3-yl]acetic acid] gave a pEC50 of 8.10.

Compound `Cc1ncc(-c2ccc(O[C@@H](C)C(C)C)cc2)c(N2CCC(C)(C)CC2)c1[C@H](OC(C)(C)C)C(=O)O` [Example 363, (2S)-2-(tert-butoxy)-2-[4-(4,4-dimethylpiperidin-1-yl)-2-methyl-5-(4-{[(2S)-3-methylbutan-2-yl]oxy}phenyl)pyridin-3-yl]acetic acid] showed a pEC50 of 7.89.

`Cc1ncc(-c2ccc(OCCc3cccc(Cl)c3)cc2)c(N2CCC(C)(C)CC2)c1[C@H](OC(C)(C)C)C(=O)O` [Example 364, (2S)-2-(tert-butoxy)-2-(5-{4-[2-(3-chlorophenyl)ethoxy]phenyl}-4-(4,4-dimethylpiperidin-1-yl)-2-methylpyridin-3-yl)acetic acid] gave a pEC50 of 8.70. This pEC50 is 0.81 log units higher than that of the compound before.

For `Cc1cccc(CCOc2ccc(-c3cnc(C)c([C@H](OC(C)(C)C)C(=O)O)c3N3CCC(C)(C)CC3)cc2)c1` [Example 365, (2S)-2-(tert-butoxy)-2-[4-(4,4-dimethylpiperidin-1-yl)-2-methyl-5-{4-[2-(3-methylphenyl)ethoxy]phenyl}pyridin-3-yl]acetic acid], the pEC50 is 8.70.

Consider `Cc1ncc(-c2ccc(OCCc3c(Cl)cccc3Cl)cc2)c(N2CCC(C)(C)CC2)c1[C@H](OC(C)(C)C)C(=O)O` [Example 366, (2S)-2-(tert-butoxy)-2-(5-{4-[2-(2,6-dichlorophenyl)ethoxy]phenyl}-4-(4,4-dimethylpiperidin-1-yl)-2-methylpyridin-3-yl)acetic acid], for which the negative-log EC50 (pEC50) is 8.30.

As for `COc1ccc(CCOc2ccc(-c3cnc(C)c([C@H](OC(C)(C)C)C(=O)O)c3N3CCC(C)(C)CC3)cc2)cc1` [Example 367, (2S)-2-(tert-butoxy)-2-[4-(4,4-dimethylpiperidin-1-yl)-5-{4-[2-(4-methoxyphenyl)ethoxy]phenyl}-2-methylpyridin-3-yl]acetic acid], the negative-log EC50 (pEC50) is 9.00. This pEC50 lies 0.70 log units higher than the previous one.

Regarding `Cc1ncc(-c2cnc(OCCC(C)C)c(F)c2)c(N2CCC(C)(C)CC2)c1[C@H](OC(C)(C)C)C(=O)O` [Example 368, (2S)-2-(tert-butoxy)-2-[4-(4,4-dimethylpiperidin-1-yl)-5′-fluoro-6-methyl-6′-(3-methylbutoxy)-[3,3′-bipyridine]-5-yl]acetic acid], the negative logarithm of the EC50 (pEC50) was 9.00.

`Cc1ncc(-c2cnc(O[C@H](C)C(C)C)c(F)c2)c(N2CCC(C)(C)CC2)c1[C@H](OC(C)(C)C)C(=O)O` [Example 369, (2S)-2-(tert-butoxy)-2-[4-(4,4-dimethylpiperidin-1-yl)-5′-fluoro-6-methyl-6′-{[(2R)-3-methylbutan-2-yl]oxy}-[3,3′-bipyridine]-5-yl]acetic acid] showed a pEC50 of 8.70.

Take `Cc1ncc(-c2cnc(O[C@@H](C)C(C)C)c(F)c2)c(N2CCC(C)(C)CC2)c1[C@H](OC(C)(C)C)C(=O)O` [Example 370, (2S)-2-(tert-butoxy)-2-[4-(4,4-dimethylpiperidin-1-yl)-5′-fluoro-6-methyl-6′-{[(2S)-3-methylbutan-2-yl]oxy}-[3,3′-bipyridine]-5-yl]acetic acid]: the pEC50 was 9.00.

Consider `Cc1ncc(-c2cnc(OCCc3cccc(Cl)c3)c(F)c2)c(N2CCC(C)(C)CC2)c1[C@H](OC(C)(C)C)C(=O)O` [Example 371, (2S)-2-(tert-butoxy)-2-{6′-[2-(3-chlorophenyl)ethoxy]-4-(4,4-dimethylpiperidin-1-yl)-5′-fluoro-6-methyl-[3,3′-bipyridine]-5-yl}acetic acid], for which the negative logarithm of the EC50 (pEC50) was 9.00.

Turning to `Cc1cccc(CCOc2ncc(-c3cnc(C)c([C@H](OC(C)(C)C)C(=O)O)c3N3CCC(C)(C)CC3)cc2F)c1` [Example 372, (2S)-2-(tert-butoxy)-2-[4-(4,4-dimethylpiperidin-1-yl)-5′-fluoro-6-methyl-6′-[2-(3-methylphenyl)ethoxy]-[3,3′-bipyridine]-5-yl]acetic acid], the negative logarithm of the EC50 (pEC50) was 9.00.

Turning to `Cc1ncc(-c2cnc(OCCc3c(Cl)cccc3Cl)c(F)c2)c(N2CCC(C)(C)CC2)c1[C@H](OC(C)(C)C)C(=O)O` [Example 373, (2S)-2-(tert-butoxy)-2-{6′-[2-(2,6-dichlorophenyl)ethoxy]-4-(4,4-dimethylpiperidin-1-yl)-5′-fluoro-6-methyl-[3,3′-bipyridine]-5-yl}acetic acid], the pEC50 is 8.52.
